Reference: PMC12794188, “Maternal–Fetal Transfer and Toxicokinetics of 2,2′,5,5′-Tetrachlorobiphenyl, [^14C]-PCB52, Following Intratracheal Administration” (Chemical Research in Toxicology, 2025)
Values joined by “and” are separate entries in the source; they are usually repeats but may differ in a detail not shown here. Equal entries are not always repeated.

Key:
[1] = Metabolite extraction and analysis: parent PCB52 and metabolite fractions in tissues and urine after intratracheal [14C]-PCB52; assay type: in vivo, Sprague–Dawley rats; settings: for PCB52 share of radioactivity over time / unmetabolized PCB52 share of radioactivity over time: over the 96 h period; for parent PCB52 share of radioactivity: maternal serum
Text: A complex mixture of confirmed and putative metabolites of PCBs has been reported in the literature. To quantify the metabolites of PCB52 in maternal serum, the developing fetus, liver, brain, lung, and adipose tissue in this study, we employed a series of liquid–liquid extractions with solvents of increasing polarity to separate phenolic, methyl sulfones, and glucuronate/sulfated metabolites. , Recovery experiments used available standards including parent PCB52, 4-OH-PCB52, 3-MeSO2-PCB52, and 4-MeSO2-PCB52 metabolites in biological samples. The levels of the parent compound PCB52 and its extractable metabolites in the samples were determined using a validated liquid scintillation counting method coupled with gas chromatography-electron capture detection (GC-ECD), following our previous protocol. , Individual extractable metabolite was separated using a series of liquid–liquid extractions, employing a graded array of solvents with incrementing polarity to facilitate the partitioning of the analytes according to their inherent lipophilic characteristics (Figure S4). Subsequently, individual fractions were classified into respective categories, including the parent PCB moiety, hydroxylated PCBs (OH-PCBs), methyl sulfonyl PCBs (MeSO2–PCBs), conjugated metabolites, and unextractable components.
Tissue samples (200–400 mg wet weight) were prepared for analysis through a two-step homogenization using 2 mL of hexane/acetone solvent (50% vol/vol). The resultant solution was centrifuged, and then the pellet underwent two successive extractions with 1.5 mL of dichloromethane (DCM), chloroform/methanol (50:50 vol/vol), methanol/water (50:50 vol/vol), and water, respectively. The supernatant from the DCM extraction contained hydroxylated metabolites, whereas the top fractions from the methanol/water extraction had conjugated PCB metabolites. The resultant supernatant from the hexane/acetone extraction was rinsed with Milli-Q water, then extracted with a 0.5 M potassium hydroxide (KOH) solution in 50% ethanol, and triple rinsed with 400 μL of hexane. The hydrophobic fraction was further purified by rinsing with 1 M hydrochloric acid (400 μL). Simultaneously, a plausible MeSO2–PCBs fraction was extracted with 500 μL of anhydrous DMSO, followed by triple hexane rinses (3 × 400 μL). The residual hydrophobic phase was quantified as native PCB52. The quantification of cold PCB52, OH-PCBs (as MeO-PCB derivatives), and MeSO2-PCBs standards in spiked samples was initially performed on a gas chromatograph (Agilent 6890N) equipped with a 63Ni μ-ECD detector and SLB-5MS capillary column (60 m × 0.25 mm I.D., 0.25 μm film thickness; Supelco, St Louis, MO). Subsequently, individual separated fractionation from [^14C]-PCB52-exposed tissue samples was transferred to a prepared scintillation vial, followed by the addition of 10 mL of cocktail solution and analysis by scintillation counter. Any quantifiable radioactivity in the residual pellet was treated as unextractable compounds.

[2] = Pulmonary uptake, exhalation and excretion (mass balance) after intratracheal [14C]-PCB52; assay type: in vivo, Sprague–Dawley rats
Experimental: Female Sprague–Dawley rats (8 weeks old) weighing 237–269.7 g (mean = 247.5 g) (Envigo RMS, LLC, Indianapolis, IN) were used for this study. All animal experiments were performed following the protocols evaluated and approved by the University of Iowa Institutional Animal Care and Use Committee (approval number 3091097). After arrival, the animals were acclimated for 7 days. The animals were housed in a light and temperature-controlled environment with ad libitum access to food and water during quarantine and throughout the study. Timed pregnancy was achieved by harem mating. , Briefly, one male and two female rats were placed together in the evening and checked for vaginal plug the following day. If vaginal plug was present, the male was removed from the breeding cage, and the gestation day 0 (GD 0), 0-day post coitum was assigned. Pregnancies were confirmed by ultrasound scan at GD 9. The dams were exposed at GD 11 (±1 day) to capture the period of early organogenesis and hormonal function, which falls within week 3 of human embryonic development. ,− On the day of the experiment, pregnant rats were intratracheally administered an average of 40 μg (range, 35–45 μg) of [^14C]-PCB52 in 100 μL of exposure solution. Although the dose used in this study exceeded the tolerable daily intake (TDI) of PCBs for healthy individuals, which is 1.6 μg per day for an individual weighing 80 kg, the use of higher acute doses has been established in toxicological studies intended for risk assessment. The intratracheal instillation method was chosen for administering [^14C]-PCB52 to represent inhalation exposures, capture exhaled concentration, and efficiently utilize the limited availability of the cost-intensive radiolabeled PCB52. , Although inhalation exposure would better represent real-world exposures to airborne LC-PCBs, it would not allow us to accurately measure the amount of PCB52 exhaled into the air after exposure and is experimentally infeasible. […] All intratracheal instillations were done under light anesthesia, achieved using a 4% isoflurane concentration via a Fortec vaporizer (Cyprane, Keighley, UK). The animals recovered from anesthesia within 1 min. Subsequently, the animals were housed within a cylindrical glass chamber measuring 2 L in volume, equipped with glass drainage mechanisms to facilitate urine collection and a metallic screen to segregate urine from feces (as in Figure S1). Air was drawn from the chamber at 6.0 L/min through a cartridge containing the XAD-2 polymeric resin to capture any exhaled [^14C]-PCB52. For periods longer than 24 h postexposure, exposed dams were placed in a metabolic cage, which was fitted with a cartridge containing XAD-2 to capture exhaled [^14C]-PCB52 as in other end points.
Maternal blood, urine, and feces samples were collected immediately before and at 0.21, 1.67, 12, 24, 48, and 96 h after lung dosing. The exposed dams were euthanized using 4% isoflurane, followed by cervical dislocation and exsanguination via a cardiac puncture. Euthanasia was consistently performed during the light cycle. Dams’ fur was wiped and analyzed for radioactivity. Using the retro-orbital blood collection method, 0.5–1.5 mL ([…] of an exposed pregnant rat’s body weight) of blood sample was collected from each of the dams until the individual dams were necropsied for whole-body tissue harvesting. At the end of the exposure period, the chamber’s interior walls were rinsed separately with water and acetone/hexane (25 – 45 mL) and wiped to measure residues. From the collected whole blood samples, 100 μL were aliquoted into three vials each, and the remaining blood was allowed to clot at room temperature before being centrifuged to yield serum. The placentas, developing fetuses, and whole-body tissue samples were harvested immediately before exposure and at 0.21, 1.67, 12, 24, and 96 h postexposure. […]

[3] = Literature half-life of PCB52 following intravenous administration in male rats (Pu et al.); settings: rat, in vivo, concentration–time data of Pu et al., read-out: half-life when Pu et al. data are fitted to a two-compartmental PK model

Clc1ccc(Cl)c(-c2cc(Cl)ccc2Cl)c1 [PCB52, 2,2′,5,5′-Tetrachlorobiphenyl]
PCB52 share of radioactivity over time ([1]; adipose tissue): 66.0 to 96.8%
unmetabolized PCB52 share of radioactivity over time ([1]; brain): 74.4 to 60.2%
PCB52 share of radioactivity over time ([1]; fetal tissues): 54.1 to 27.7%
unmetabolized PCB52 share of radioactivity over time ([1]; liver): 64.0 to 37.3%
parent PCB52 share of radioactivity ([1]; 0.21 h): 69.4%
parent PCB52 share of radioactivity ([1]; 96 h): 6.8%
PCB52 share of radioactivity over time ([1]; placenta): 67.8 to 28.6%
parent compound in urine ([1]; urine): no detectable parent compound
dose retained ([2]; after 96 h): 41.1%
elimination through feces ([2]; at 96 h postexposure): 42.5%
elimination through urine ([2]; at 96 h postexposure): 14.5%
total elimination ([2]; at 96 h postexposure): 58.9%
exhaled proportion of the administered dose ([2]; by 96 h postexposure): 1.33 ± 0.51%
average lung uptake (administered dose distributed to the systemic circulation) ([2]; intratracheal administration): 99.4 ± 0.5% and 99.40 ± 0.51%
half-life [3]: 2160 to 2880 min
